What was measured:
[1] = test system: Human subjects with stage 3 or 4 chronic kidney disease; test: Hemoglobin levels in chronic kidney disease patients treated orally with Compound A; type: in vivo; settings: all groups A-D, oral, 16 or 24 weeks; all p<0.0001; dose-dependent
Method: No intravenous iron administration was allowed during the treatment, and subjects who had received more than one administration of IV iron within 12 weeks prior to randomization were excluded. […] Treatment was continued for weeks 5 through 16 with dose adjusted every 4 weeks to maintain hemoglobin of 11-13 g/dL (target Hb range). Group A continued dosing three time a week, Group B was switched to twice weekly dosing. Groups C (n=24) received a initial fixed dose of 50 mg, three times a week for 4 weeks and group D (n=24) received an initial fixed dose of 100 mg, three times a week. Treatment was continued for weeks 5 to 24 with dose adjusted to maintain hemoglobin of 10.5-12 g/dL (target Hb range). Hemoglobin and platelet counts were measured every 4 weeks.

[2] = molecular target: PHD1 (Homo sapiens, UniProt Q96KS0); test: HIF prolyl hydroxylase enzyme assay, PHD1; type: biochemical
PHD1, sequence (Q96KS0 whole entry): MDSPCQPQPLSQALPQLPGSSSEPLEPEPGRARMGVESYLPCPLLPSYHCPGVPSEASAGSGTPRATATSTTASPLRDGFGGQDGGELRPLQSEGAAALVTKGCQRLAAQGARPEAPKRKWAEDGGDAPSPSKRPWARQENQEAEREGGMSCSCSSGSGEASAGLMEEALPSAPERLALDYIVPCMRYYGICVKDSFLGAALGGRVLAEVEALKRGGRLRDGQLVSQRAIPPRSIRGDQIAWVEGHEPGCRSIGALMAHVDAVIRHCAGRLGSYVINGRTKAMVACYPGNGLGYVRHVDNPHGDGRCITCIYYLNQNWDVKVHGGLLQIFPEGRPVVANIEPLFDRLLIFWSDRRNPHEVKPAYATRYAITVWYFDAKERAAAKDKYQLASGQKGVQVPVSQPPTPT
Description: (§1) Suitable assay methods are well known in the art.

[3] = molecular target: PHD3 (Homo sapiens, UniProt Q9H6Z9); test: HIF prolyl hydroxylase enzyme assay, PHD3; type: biochemical
PHD3, sequence (Q9H6Z9 whole entry): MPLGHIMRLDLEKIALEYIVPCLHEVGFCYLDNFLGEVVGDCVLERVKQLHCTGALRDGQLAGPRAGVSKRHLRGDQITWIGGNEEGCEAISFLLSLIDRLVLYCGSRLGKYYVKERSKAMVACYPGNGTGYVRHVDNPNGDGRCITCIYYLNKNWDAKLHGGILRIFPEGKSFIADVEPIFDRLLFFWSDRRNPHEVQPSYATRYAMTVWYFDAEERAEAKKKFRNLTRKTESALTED
Description: as §1

[4] = test system: Human subjects with stage 3 or 4 chronic kidney disease; test: Platelet counts in chronic kidney disease patients treated orally with Compound A; type: in vivo
Method: No intravenous iron administration was allowed during the treatment, and subjects who had received more than one administration of IV iron within 12 weeks prior to randomization were excluded.
Groups A (n=24) and B (n=24) received an initial weight-adjusted dose of 60 mg (for subjects of 40 to 60 kg), 100 mg (for subjects of >60 to 90 kg), or 140 mg (for subjects of >90 to 140 kg), three times a week for 4 weeks. Treatment was continued for weeks 5 through 16 with dose adjusted every 4 weeks to maintain hemoglobin of 11-13 g/dL (target Hb range). Group A continued dosing three time a week, Group B was switched to twice weekly dosing.
Groups C (n=24) received a initial fixed dose of 50 mg, three times a week for 4 weeks and group D (n=24) received an initial fixed dose of 100 mg, three times a week. Treatment was continued for weeks 5 to 24 with dose adjusted to maintain hemoglobin of 10.5-12 g/dL (target Hb range). Hemoglobin and platelet counts were measured every 4 weeks.
In a separate analysis of the data from Example 1, all patient data on platelet count over time was combined and stratified into quartiles based on the baseline platelet count. Each quartile had n=24. Quartile 1 included the 24 patients with the lowest baseline platelet count. Quartile 2 included the 24 patients with the next highest baseline platelet count after the patients in quartile 1. Quartile 3 included the 24 patients with the next highest baseline platelet count after the patients in quartile 2. Quartile 4 included the 24 patients with the highest baseline platelet count.

[5] = test system: treated subjects; settings: treatment of anemia with ESA; cited from earlier work

| IC50 [2] [µM] | IC50 [3] [µM] | Mean platelet count change from baseline to end of treatment ([4]; Group A, weight-adjusted dose three times a week, 16 weeks, baseline 267, p<0.0001) | Mean platelet count change from baseline to end of treatment ([4]; Group B, weight-adjusted dose, switched to twice weekly, 16 weeks, baseline 292, p<0.0001) | Mean platelet count change from baseline to end of treatment ([4]; Group C, initial fixed dose 50 mg three times a week, 24 weeks, baseline 255, p=0.89) | Mean platelet count change from baseline to end of treatment ([4]; Group D, initial fixed dose 100 mg three times a week, 24 weeks, baseline 231, p=0.30) | Mean change in platelet count from baseline to end of treatment, combined groups ([4]; week 17, p<0.0001) | Mean change in platelet count from baseline to end of treatment, combined groups ([4]; week 25, p=0.41) | Platelet count over course of treatment, stratified by baseline quartile ([4]; quartile 4 (highest), mean baseline 388.7×10^9/L) | Molecule | Mean hemoglobin concentrations, end of treatment vs. baseline [1] | Platelet count over course of treatment, stratified by baseline quartile ([4]; lower 3 quartiles, mean baseline 164.9, 224.8, 272.2 ×10^9/L) | Effect on platelet count in treated subjects [5] |
| --- | --- | --- | --- | --- | --- | --- | --- | --- | --- | --- | --- | --- |
| 0.2 to 2 | 0.2 to 2 | −46.55 1×10^9/L | −43.67 1×10^9/L | −1.69 1×10^9/L | −11.88 1×10^9/L | −30.05 | −6.94 | decreased from baseline | Cc1nc(C(=O)NCC(=O)O)c(O)c2ccc(Oc3ccccc3)cc12 [Compound A, [(4-hydroxy-1-methyl-7-phenoxy-isoquinoline-3-carbonyl)-amino]-acetic acid] | increased from the baseline | maintained at (or not significantly increased from) the baseline level | – |
| – | – | – | – | – | – | – | – | – | epoetin beta: erythropoiesis-stimulating agent, recombinant human erythropoietin (rHuEPO) | – | – | increase platelet count |
| – | – | – | – | – | – | – | – | – | epoetin α: erythropoiesis-stimulating agent, recombinant human erythropoietin (rHuEPO) | – | – | increase platelet count |

— US20140309256A1, “Therapeutic Method” (FibroGen, Inc., priority 2011, published 2014)
